Results as given in article PMC5201331, “Subchronic Toxicities of HZ1006, a Hydroxamate-Based Histone Deacetylase Inhibitor, in Beagle Dogs and Sprague-Dawley Rats” (International Journal of Environmental Research and Public …, 2016).

System: Beagle dogs
Test: Subchronic toxicity test in Beagle dogs: serum biochemistry
Assay type: in vivo
Details: dogs
Experimental: HZ1006 was administered orally to dogs (four/sex/group) at doses of 80, 40, 20, 5 and 0 (control) mg/kg/day, and the dosage volume was 2 mL/kg. The dogs received test doses with the exact amounts on a weekly basis based on current body weights. […] The other dogs in the above groups were dissected on the planned days. For the other groups, half of the dogs were anatomized on d28 and the remaining half on d42.
The following indexes were examined for the dogs used in the study, twice during the pre-dosage period and on d14, d28 and d42. The following parameters were evaluated on d28 and d42 for the rats in the study:
The animal blood samples were collected in the tubes containing the coagulator and centrifuged at 500 g for 10 min; the supernatant was then collected into a new tube. The serum biochemistry indexes included the following: alanine aminotransferase (ALT), alkaline phosphatase (ALP), aspartate aminotransferase (AST), blood urea (BU), lactate dehydrogenase (LDH), total bilirubin (TBIL), creatinine (Crea), albumin (ALB), total protein (TP), triglycerides (TG), total cholesterol (TCH), γ-glutamyltranspeptidase (g-GT), glucose (GLU), creatine phosphokinase (CPK), uric acid (UA), phosphorus (P), and calcium (Ca^2+). The above parameters were analyzed using an Automatic Analyzer 7080 provided by Hitachi High-Technologies Corp. (Tokyo, Japan). An Na/K/Cl Analyzer EasyLyte PLUS from Medica Corp. (Bedford, MA, USA), was used to determine the levels of chloride (Cl^−), sodium (Na^+) and potassium (K^+) in the blood samples.

[1] = 20 mg/kg/day oral, d42 (recovery)
[2] = 40 mg/kg/day oral, d0 (pre-dose)
[3] = 40 mg/kg/day oral, d42 (recovery)
[4] = 80 mg/kg/day oral, d0 (pre-dose)
[5] = 80 mg/kg/day oral, d42 (recovery)

CCCCCCCNc1cc(/C=C/C(=O)NO)ccc1OCCN(CC)CC [HZ1006]
ALP: Alkaline phosphatase (20 mg/kg/day oral, d28): 0.98 ± 0.27 µmol/s/L | ALT: Alanine aminotransferase (20 mg/kg/day oral, d28): 486 ± 90 nmol/s/L | AST: Aspartate aminotransferase (20 mg/kg/day oral, d28): 408 ± 57 nmol/s/L | BU: Blood urea (20 mg/kg/day oral, d28): 5.37 ± 1.78 mmol/L | CPK: Creatine phosphokinase (20 mg/kg/day oral, d28): 2.38 ± 0.53 µmol/s/L | CREA: Creatinine (20 mg/kg/day oral, d28): 52.1 ± 10.3 µmol/L | LDH: Lactate dehydrogenase (20 mg/kg/day oral, d28): 1.54 ± 0.74 µmol/s/L | TBIL: Total bilirubin (20 mg/kg/day oral, d28): 2.29 ± 0.31 µmol/L | TCH: Total cholesterol (20 mg/kg/day oral, d28): 3.95 ± 0.55 mmol/L | TG: Triglycerides (20 mg/kg/day oral, d28): 0.34 ± 0.05 mmol/L | ALP: Alkaline phosphatase [1]: 1.00 ± 0.24 µmol/s/L | ALT: Alanine aminotransferase [1]: 523 ± 148 nmol/s/L | AST: Aspartate aminotransferase [1]: 412 ± 31 nmol/s/L | BU: Blood urea [1]: 4.05 ± 0.37 mmol/L | CPK: Creatine phosphokinase [1]: 2.17 ± 0.30 µmol/s/L | CREA: Creatinine [1]: 49.6 ± 0.6 µmol/L | LDH: Lactate dehydrogenase [1]: 2.28 ± 0.93 µmol/s/L | TBIL: Total bilirubin [1]: 1.88 ± 0.19 µmol/L | TCH: Total cholesterol [1]: 3.81 ± 0.18 mmol/L | TG: Triglycerides [1]: 0.33 ± 0.12 mmol/L | ALP: Alkaline phosphatase [2]: 1.62 ± 0.40 µmol/s/L | ALT: Alanine aminotransferase [2]: 526 ± 179 nmol/s/L | AST: Aspartate aminotransferase [2]: 462 ± 57 nmol/s/L | BU: Blood urea [2]: 3.95 ± 0.48 mmol/L | CPK: Creatine phosphokinase [2]: 3.27 ± 0.76 µmol/s/L | CREA: Creatinine [2]: 49.2 ± 6.2 µmol/L | LDH: Lactate dehydrogenase [2]: 3.39 ± 1.55 µmol/s/L | TBIL: Total bilirubin [2]: 2.24 ± 0.24 µmol/L | TCH: Total cholesterol [2]: 5.38 ± 1.95 mmol/L | TG: Triglycerides [2]: 0.41 ± 0.10 mmol/L | ALP: Alkaline phosphatase (40 mg/kg/day oral, d14): 1.03 ± 0.32 µmol/s/L | ALT: Alanine aminotransferase (40 mg/kg/day oral, d14): 433 ± 304 nmol/s/L | AST: Aspartate aminotransferase (40 mg/kg/day oral, d14): 313 ± 23 nmol/s/L | BU: Blood urea (40 mg/kg/day oral, d14): 4.52 ± 1.05 mmol/L | CPK: Creatine phosphokinase (40 mg/kg/day oral, d14): 2.36 ± 0.19 µmol/s/L | CREA: Creatinine (40 mg/kg/day oral, d14): 52.5 ± 6.1 µmol/L | LDH: Lactate dehydrogenase (40 mg/kg/day oral, d14): 1.29 ± 0.68 µmol/s/L | TBIL: Total bilirubin (40 mg/kg/day oral, d14): 1.81 ± 0.24 µmol/L | TCH: Total cholesterol (40 mg/kg/day oral, d14): 4.47 ± 0.71 mmol/L | TG: Triglycerides (40 mg/kg/day oral, d14): 0.41 ± 0.12 mmol/L | ALP: Alkaline phosphatase (40 mg/kg/day oral, d28): 1.30 ± 0.24 µmol/s/L | ALT: Alanine aminotransferase (40 mg/kg/day oral, d28): 347 ± 78 nmol/s/L | AST: Aspartate aminotransferase (40 mg/kg/day oral, d28): 378 ± 71 nmol/s/L | BU: Blood urea (40 mg/kg/day oral, d28): 4.66 ± 0.96 mmol/L | CPK: Creatine phosphokinase (40 mg/kg/day oral, d28): 3.00 ± 0.94 µmol/s/L | CREA: Creatinine (40 mg/kg/day oral, d28): 52.6 ± 9.8 µmol/L | LDH: Lactate dehydrogenase (40 mg/kg/day oral, d28): 2.76 ± 2.49 µmol/s/L | TBIL: Total bilirubin (40 mg/kg/day oral, d28): 2.04 ± 0.43 µmol/L | TCH: Total cholesterol (40 mg/kg/day oral, d28): 4.66 ± 1.85 mmol/L | TG: Triglycerides (40 mg/kg/day oral, d28): 0.43 ± 0.18 mmol/L | ALP: Alkaline phosphatase [3]: 1.34 ± 0.34 µmol/s/L | ALT: Alanine aminotransferase [3]: 514 ± 112 nmol/s/L | AST: Aspartate aminotransferase [3]: 468 ± 80 nmol/s/L | BU: Blood urea [3]: 4.87 ± 1.56 mmol/L | CPK: Creatine phosphokinase [3]: 3.00 ± 1.32 µmol/s/L | CREA: Creatinine [3]: 58.8 ± 2.0 µmol/L | LDH: Lactate dehydrogenase [3]: 3.50 ± 2.49 µmol/s/L | TBIL: Total bilirubin [3]: 1.88 ± 0.08 µmol/L | TCH: Total cholesterol [3]: 4.55 ± 1.10 mmol/L | TG: Triglycerides [3]: 0.45 ± 0.04 mmol/L | ALP: Alkaline phosphatase [4]: 1.62 ± 0.49 µmol/s/L | ALT: Alanine aminotransferase [4]: 591 ± 143 nmol/s/L | AST: Aspartate aminotransferase [4]: 493 ± 103 nmol/s/L | BU: Blood urea [4]: 4.38 ± 0.72 mmol/L | CPK: Creatine phosphokinase [4]: 3.24 ± 0.77 µmol/s/L | CREA: Creatinine [4]: 53.4 ± 5.2 µmol/L | LDH: Lactate dehydrogenase [4]: 2.71 ± 0.97 µmol/s/L | TBIL: Total bilirubin [4]: 2.64 ± 0.41 µmol/L | TCH: Total cholesterol [4]: 4.03 ± 1.04 mmol/L | TG: Triglycerides [4]: 0.38 ± 0.15 mmol/L | ALP: Alkaline phosphatase (80 mg/kg/day oral, d14): 1.27 ± 1.15 µmol/s/L | ALT: Alanine aminotransferase (80 mg/kg/day oral, d14): 312 ± 38 nmol/s/L | AST: Aspartate aminotransferase (80 mg/kg/day oral, d14): 386 ± 104 nmol/s/L | BU: Blood urea (80 mg/kg/day oral, d14): 4.66 ± 0.93 mmol/L | CPK: Creatine phosphokinase (80 mg/kg/day oral, d14): 3.29 ± 1.86 µmol/s/L | CREA: Creatinine (80 mg/kg/day oral, d14): 58.2 ± 4.8 µmol/L | LDH: Lactate dehydrogenase (80 mg/kg/day oral, d14): 1.76 ± 1.85 µmol/s/L | TBIL: Total bilirubin (80 mg/kg/day oral, d14): 2.74 ± 2.93 µmol/L | TCH: Total cholesterol (80 mg/kg/day oral, d14): 4.62 ± 2.51 mmol/L | TG: Triglycerides (80 mg/kg/day oral, d14): 0.56 ± 0.28 mmol/L | ALP: Alkaline phosphatase (80 mg/kg/day oral, d28): 1.01 ± 0.27 µmol/s/L | ALT: Alanine aminotransferase (80 mg/kg/day oral, d28): 307 ± 51 nmol/s/L | AST: Aspartate aminotransferase (80 mg/kg/day oral, d28): 310 ± 59 nmol/s/L | BU: Blood urea (80 mg/kg/day oral, d28): 5.25 ± 1.21 mmol/L | CPK: Creatine phosphokinase (80 mg/kg/day oral, d28): 1.73 ± 0.24 µmol/s/L | CREA: Creatinine (80 mg/kg/day oral, d28): 54.3 ± 8.9 µmol/L | LDH: Lactate dehydrogenase (80 mg/kg/day oral, d28): 0.97 ± 0.30 µmol/s/L | TBIL: Total bilirubin (80 mg/kg/day oral, d28): 2.19 ± 0.20 µmol/L | TCH: Total cholesterol (80 mg/kg/day oral, d28): 4.16 ± 1.39 mmol/L | TG: Triglycerides (80 mg/kg/day oral, d28): 0.45 ± 0.11 mmol/L | ALP: Alkaline phosphatase [5]: 0.99 ± 0.14 µmol/s/L | ALT: Alanine aminotransferase [5]: 549 ± 181 nmol/s/L | AST: Aspartate aminotransferase [5]: 460 ± 83 nmol/s/L | BU: Blood urea [5]: 4.93 ± 0.50 mmol/L | CPK: Creatine phosphokinase [5]: 2.86 ± 0.53 µmol/s/L | CREA: Creatinine [5]: 65.9 ± 11.3 µmol/L | TBIL: Total bilirubin [5]: 1.90 ± 0.23 µmol/L | TCH: Total cholesterol [5]: 3.52 ± 0.84 mmol/L | TG: Triglycerides [5]: 0.40 ± 0.14 mmol/L
